According to PMC7806630, “Molecular basis of the interaction of the human tyrosine phosphatase PTPN3 with the hepatitis B virus core protein” (Scientific Reports, 2021):

How the values were obtained:
[1] = test system: GIPC1; test: holdup assay, GIPC1 PDZ domain; format: binding, human; conditions: biotinylated PBM-HBc peptide, in duplicates, BI > 0.2 significant
[2] = test system: MAGI3; test: holdup assay, MAGI3 PDZ domain; format: binding, human; conditions: biotinylated PBM-HBc peptide, in duplicates, BI > 0.2 significant
[3] = test system: PTPN4; test: holdup assay, PTPN4 PDZ domain; format: binding, human; conditions: biotinylated PBM-HBc peptide, in duplicates, BI > 0.2 significant
[4] = test system: SNTB1; test: holdup assay, SNTB1 PDZ domain; format: binding, human; conditions: biotinylated PBM-HBc peptide, in duplicates, BI > 0.2 significant
[5] = test system: DLG4_3; test: holdup assay, DLG4_3 PDZ domain; format: binding, human; conditions: biotinylated PBM-HBc peptide, in duplicates, BI > 0.2 significant
[6] = test system: MAGI2; test: holdup assay, MAGI2 PDZ domain; format: binding, human; conditions: biotinylated PBM-HBc peptide, in duplicates, BI > 0.2 significant
[7] = test system: MAGI1; test: holdup assay, MAGI1 PDZ domain; format: binding, human; conditions: biotinylated PBM-HBc peptide, in duplicates, BI > 0.2 significant
[8] = test system: STXB4; test: holdup assay, STXB4 PDZ domain; format: binding, human; conditions: biotinylated PBM-HBc peptide, in duplicates, BI > 0.2 significant
[9] = test system: MPDZ; test: holdup assay, MPDZ PDZ domain; format: binding, human; conditions: biotinylated PBM-HBc peptide, in duplicates, BI > 0.2 significant
[10] = test system: SYNJ2BP; test: holdup assay, SYNJ2BP PDZ domain; format: binding, human; conditions: biotinylated PBM-HBc peptide, in duplicates, BI > 0.2 significant
[11] = test system: DLG4_1; test: holdup assay, DLG4_1 PDZ domain; format: binding, human; conditions: biotinylated PBM-HBc peptide, in duplicates, BI > 0.2 significant
[12] = test system: DLG1_2; test: holdup assay, DLG1_2 PDZ domain; format: binding, human; conditions: biotinylated PBM-HBc peptide, in duplicates, BI > 0.2 significant
[13] = test system: SNX27; test: holdup assay, SNX27 PDZ domain; format: binding, human; conditions: biotinylated PBM-HBc peptide, in duplicates, BI > 0.2 significant
[14] = test system: DLG2_2; test: holdup assay, DLG2_2 PDZ domain; format: binding, human; conditions: biotinylated PBM-HBc peptide, in duplicates, BI > 0.2 significant
[15] = test system: SNTB2; test: holdup assay, SNTB2 PDZ domain; format: binding, human; conditions: biotinylated PBM-HBc peptide, in duplicates, BI > 0.2 significant
[16] = test system: DLG3_2; test: holdup assay, DLG3_2 PDZ domain; format: binding, human; conditions: biotinylated PBM-HBc peptide, in duplicates, BI > 0.2 significant
[17] = test system: DLG4_2_; test: holdup assay, DLG4_2_ PDZ domain; format: binding, human; conditions: biotinylated PBM-HBc peptide, in duplicates, BI > 0.2 significant
[18] = test system: DLG2_1; test: holdup assay, DLG2_1 PDZ domain; format: binding, human; conditions: biotinylated PBM-HBc peptide, in duplicates, BI > 0.2 significant
[19] = test system: DLG1_3; test: holdup assay, DLG1_3 PDZ domain; format: binding, human; conditions: biotinylated PBM-HBc peptide, in duplicates, BI > 0.2 significant
[20] = test system: DLG1_1; test: holdup assay, DLG1_1 PDZ domain; format: binding, human; conditions: biotinylated PBM-HBc peptide, in duplicates, BI > 0.2 significant
[21] = test system: GIPC2; test: holdup assay, GIPC2 PDZ domain; format: binding, human; conditions: biotinylated PBM-HBc peptide, in duplicates, BI > 0.2 significant
[22] = test system: InaDl; test: holdup assay, InaDl PDZ domain; format: binding, human; conditions: biotinylated PBM-HBc peptide, in duplicates, BI > 0.2 significant
[23] = test system: TJP2; test: holdup assay, TJP2 PDZ domain; format: binding, human; conditions: biotinylated PBM-HBc peptide, in duplicates, BI > 0.2 significant
[24] = test system: SNTA1; test: holdup assay, SNTA1 PDZ domain; format: binding, human; conditions: biotinylated PBM-HBc peptide, in duplicates, BI > 0.2 significant
[25] = test system: SIPA1L2; test: holdup assay, SIPA1L2 PDZ domain; format: binding, human; conditions: biotinylated PBM-HBc peptide, in duplicates, BI > 0.2 significant
[26] = test system: SCRIB; test: holdup assay, SCRIB PDZ domain; format: binding, human; conditions: biotinylated PBM-HBc peptide, in duplicates, BI > 0.2 significant
[27] = test system: MAST2; test: holdup assay, MAST2 PDZ domain; format: binding, human; conditions: biotinylated PBM-HBc peptide, in duplicates, BI > 0.2 significant
[28] = test system: human PDZ domains (the PDZome); test: holdup assay, PDZome profile; format: binding; conditions: holdup assay against human PDZome, threshold BI = 0.2
[29] = biological target: PTPN3-PDZ; conditions: previously reported; cited from earlier work
From the text: In the present study, we investigated the molecular mechanism of interaction between PTPN3 and HBc. […] We confirmed the interaction by NMR.

[30] = test system: PTPN3-PDZ; test: NMR binding of full-length HBc (CLPs) to PTPN3-PDZ; parameters: species or system human; conditions: 1H,15N HSQC-TROSY, 600 MHz, 20 °C, PTPN3-PDZ 95 μM, PDZ:HBc final ratio 1:19.4
Procedure: We then tested the complex formation between PTPN3-PDZ and the full-length HBc (Fig. 2c). ^1H, ^15N HSQC-TROSY spectra were recorded on ^15N-labeled PTPN3-PDZ in its free form (red signals in Fig. 2c) and in the presence of the unlabeled HBc full-length protein at different ratios. […] Indeed, wild type (WT) HBc proteins form homodimers and self-assemble into capsids, and the full-length HBc expressed in Escherichia coli mainly assembles into capsid-like particles (CLPs) of 3 to 5 million Da, as measured by analytical ultracentrifugation (AUC) (Fig. 2d). […] The molecular tumbling of PTPN3-PDZ is drastically slowed down when forming high molecular weight complexes with the CLPs, which induced the broadening of the linewidths of the PTPN3-PDZ signals beyond detection. Yet, the TROSY spectra of the complexes did contain a few peaks, which we attributed to regions of PTPN3-PDZ that remained mobile, probably the N-terminal and C-terminal extremities.
The NMR binding experiments between PTPN3-PDZ and full-length HBc as CLPs were performed at 20 °C on a 600-MHz BRUKER Avance III HD spectrometer equipped with a cryoprobe. […] A series of ^1H, ^15N HSQC-TROSY spectra was recorded for different titration points with a ratio PDZ:HBc (mol:mol) 1:0, 1:1.4, 1:5.6, and 1:19.4.

[31] = test system: GST-PTPN3-PDZ; test: GST pull-down assay with GST-PTPN3-PDZ; format: binding, human; conditions: lysate of HeLa S3 cells overexpressing HF-tagged HBc; anti-HA Western blot; GST alone as negative control
Procedure: To investigate whether the PBM at the end of CTD of HBc is accessible to PTPN3 binding during capsid assembly, a glutathione S-transferase (GST) pull-down in vitro assay was performed with lysates of HeLa S3 cells overexpressing the HA-Flag-tagged either wild-type full-length HBc (HF-HBc WT) or its Y132A mutant (HF-HBc Y132A) that forms dimers but is unable to assemble into capsids[35] (Fig. 3a; Supporting Information Fig. 1). GST protein was used as a negative control. The expression of HF-HBc WT and HF-HBc Y132A in the cell lysates was verified by Western blot using the anti-HA antibody (Fig. 3a, lane 5). We also confirmed, using native Western blot, the presence of capsid in the HeLaS3 HBc WT cell lysate and its absence in the HeLaS3 HBc Y132A cell lysate (Fig. 3b).
The construct PTPN3-PDZ tagged with a N-terminal GST (GST-PTPN3-PDZ) was expressed and purified as previously described[25] without TEV cleavage. The additional TEV cleavage step of GST-PTPN3-PDZ provides the GST alone. […]
After lysate binding, the glutathione-agarose beads were washed four times with binding buffer, pelleted, and resuspended in SDS-PAGE sample buffer for Western blotting. After boiling, the bound proteins were analyzed using 12% SDS-PAGE followed by Western blotting using HRP-conjugated HA Epitope Tag monoclonal antibody (26183-HRP, THERMOFISHER) diluted to 1:2000. […]

[32] = biological target: T1, PDZ domain of PTPN3 (PTPN3-PDZ), residues 489-597 (human, UniProt P26045 489-597); test: crystal structure; co-crystal of PTPN3-PDZ with PBM-HBc peptide added in excess; 20 mM HEPES pH 8, 150 mM NaCl, 0.5 mM TCEP; reservoir 20% PEG 3350, 0.2 M NaBr pH 7; 1.86 Å; conditions: both partners purified
T1 construct: not shown: GST, N-terminal, cleaved
T1 sequence (looked up): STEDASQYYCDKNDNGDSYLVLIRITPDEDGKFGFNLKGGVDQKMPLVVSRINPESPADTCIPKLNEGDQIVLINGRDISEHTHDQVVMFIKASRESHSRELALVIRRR

## -RRRRSQSRESQC [HBc PBM]
[1]
  BI (binding intensity): 0,85
[2]
  BI (binding intensity): 0,78
[3]
  BI (binding intensity): 0,58
[4]
  BI (binding intensity): 0,54
[5]
  BI (binding intensity): 0,53
[6]
  BI (binding intensity): 0,51
[7]
  BI (binding intensity): 0,49
[8]
  BI (binding intensity): 0,47
[9]
  BI (binding intensity): 0,46
[10]
  BI (binding intensity): 0,43
[11]
  BI (binding intensity): 0,43
[12]
  BI (binding intensity): 0,40
[13]
  BI (binding intensity): 0,39
[14]
  BI (binding intensity): 0,38
[15]
  BI (binding intensity): 0,38
[16]
  BI (binding intensity): 0,36
[17]
  BI (binding intensity): 0,35
[18]
  BI (binding intensity): 0,35
[19]
  BI (binding intensity): 0,34
[20]
  BI (binding intensity): 0,34
[21]
  BI (binding intensity): 0,31
[22]
  BI (binding intensity): 0,29
[23]
  BI (binding intensity): 0,27
[24]
  BI (binding intensity): 0,25
[25]
  BI (binding intensity): 0,24
[26]
  BI (binding intensity): 0,23
[27]
  BI (binding intensity): 0,21
[28]
  number of potential HBc binders containing PDZ domains: 28

## ETQL [PBM-16E6, PBM of the HPV16 E6 protein, reference compound]
[29]
  KD: a few tens of

## NH2RRRRSQSRESQCCOOH [PBM-HBc, PBM-HBc peptide (NH2…OOH)]
[29]
  KD: a few tens of

B1: full-length HBc: full-length HBc expressed in Escherichia coli mainly assembles into capsid-like particles (CLPs) (protein)
chain: MDIDPYKEFGATVELLSFLPSDFFPSVRDLLDTASALYREALESPEHCSPHHTALRQAILCWGELMTLATWVGVNLEDPASRDLVVSYVNTNMGLKFRQLLWFHISCLTFGRETVIEYLVSFGVWIRTPPAYRPPNAPILSTLPETTVVRRRGRSPRRRTPSPRRRRSQSPRRRRSQSRESQC
[30]
  effect on TROSY resonances of PTPN3-PDZ: nearly all of the TROSY resonances observed with free PTPN3-PDZ had disappeared

B2: HBc WT: HA-Flag-tagged wild-type full-length HBc (protein)
chain: MDIDPYKEFGATVELLSFLPSDFFPSVRDLLDTASALYREALESPEHCSPHHTALRQAILCWGELMTLATWVGVNLEDPASRDLVVSYVNTNMGLKFRQLLWFHISCLTFGRETVIEYLVSFGVWIRTPPAYRPPNAPILSTLPETTVVRRRGRSPRRRTPSPRRRRSQSPRRRRSQSRESQC
[31]
  binding in GST pull-down: detected only in interaction with GST-PTPN3-PDZ

B3: PBM-HBc peptide (C-terminal PDZ-binding motif of the hepatitis B virus core protein) (peptide)
peptide: RRRRSQSRESQC
notes: also called PBM of HBc; source: synthetic peptide (Fmoc solid phase, PROTEOGENIX)
[32]
  binding result: binds
